In the Kinase Knowledgebase extract (Sharma et al. 2016):

target: PIK3CG (human) (UniProt P48736); test: Inhibition of PIK3CG Kinase Activity
Sequence (P48736 whole entry, looked up): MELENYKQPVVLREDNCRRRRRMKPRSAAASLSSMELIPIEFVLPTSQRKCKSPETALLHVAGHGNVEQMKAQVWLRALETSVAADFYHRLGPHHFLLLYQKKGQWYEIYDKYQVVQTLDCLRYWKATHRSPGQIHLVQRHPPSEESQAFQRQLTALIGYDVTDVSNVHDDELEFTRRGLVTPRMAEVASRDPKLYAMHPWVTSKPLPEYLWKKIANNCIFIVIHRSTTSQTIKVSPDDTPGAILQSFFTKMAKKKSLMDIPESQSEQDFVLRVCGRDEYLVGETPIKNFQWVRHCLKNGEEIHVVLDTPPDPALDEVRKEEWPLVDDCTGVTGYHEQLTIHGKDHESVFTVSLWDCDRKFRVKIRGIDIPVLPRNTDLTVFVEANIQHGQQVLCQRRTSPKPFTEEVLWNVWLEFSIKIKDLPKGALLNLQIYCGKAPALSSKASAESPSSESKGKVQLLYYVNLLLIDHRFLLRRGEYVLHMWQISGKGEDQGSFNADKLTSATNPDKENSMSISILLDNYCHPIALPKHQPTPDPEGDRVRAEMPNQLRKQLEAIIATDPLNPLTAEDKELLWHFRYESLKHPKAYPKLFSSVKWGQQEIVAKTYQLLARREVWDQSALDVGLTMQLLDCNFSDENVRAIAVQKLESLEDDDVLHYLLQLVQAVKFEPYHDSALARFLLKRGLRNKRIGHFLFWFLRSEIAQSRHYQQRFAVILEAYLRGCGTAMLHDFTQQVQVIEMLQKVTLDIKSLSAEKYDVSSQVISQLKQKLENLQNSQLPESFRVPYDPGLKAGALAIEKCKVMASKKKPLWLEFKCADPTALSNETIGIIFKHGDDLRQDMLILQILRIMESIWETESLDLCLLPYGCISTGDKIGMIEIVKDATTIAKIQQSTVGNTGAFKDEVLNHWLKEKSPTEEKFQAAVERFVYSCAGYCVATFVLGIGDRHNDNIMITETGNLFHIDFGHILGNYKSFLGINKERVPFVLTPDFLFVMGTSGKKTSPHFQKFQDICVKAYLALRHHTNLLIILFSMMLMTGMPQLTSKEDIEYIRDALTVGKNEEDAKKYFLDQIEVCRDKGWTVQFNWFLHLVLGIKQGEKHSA

Row | IC50 | Structure (SMILES)
1 | < 0.6 µM | CC(=O)Nc1nc2c(s1)-c1c(c(C3CC3)nn1-c1ccc(CC(=O)NC3CCCCC3)cc1Cl)CC2
2 | < 0.6 µM | CC(=O)Nc1nc2c(s1)-c1c(c(C3CC3)nn1-c1ccc(C(=O)N[C@@H]3CCN(C4CCCC4)C3)c(C)c1)CC2
3 | < 0.6 µM | CC(=O)Nc1nc2c(s1)-c1c(c(C3CC3)nn1-c1ccc(C(=O)N3CCC(N(C)C4CCCC4)CC3)c(C)c1)CC2
4 | < 0.6 µM | CC(=O)Nc1nc2c(s1)-c1c(c(C3CC3)nn1-c1ccc(C(=O)NC3CCN(C4CCCCC4)CC3)c(C)c1)CC2
5 | < 0.6 µM | CC(=O)Nc1nc2c(s1)-c1c(c(C3CC3)nn1-c1ccc(C(=O)NC[C@@H]3CCNC3)c(Cl)c1)CC2
6 | < 0.6 µM | CC(=O)Nc1nc2c(s1)-c1c(c(C3CC3)nn1-c1ccc(C(=O)NC3CCN(CC4CCCC4)CC3)cc1F)CC2
7 | < 0.6 µM | CC(=O)Nc1nc2c(s1)-c1c(c(C3CC3)nn1C1CCC(C(=O)N[C@H]3CC[C@@H](N4CCCC4)CC3)CC1)CC2 (some centres undefined)
8 | < 0.6 µM | CC(=O)Nc1nc2c(s1)-c1c(c(C3CC3)nn1C1CCC(C(=O)N[C@H]3CC[C@H](N4CCCC4)CC3)CC1)CC2 (some centres undefined)
9 | < 0.6 µM | CCCN1CCC(NC(=O)c2ccc(-n3nc(C4CCC4)c4c3-c3sc(NC(C)=O)nc3CC4)c(Cl)c2)CC1
10 | < 0.6 µM | CCCN1CCC(NC(=O)c2ccc(-n3nc(C4CC4)c4c3-c3sc(NC(C)=O)nc3CC4)c(F)c2)CC1
11 | < 0.6 µM | CC(=O)Nc1nc2c(s1)-c1c(c(C3CCC3)nn1-c1ccc(C(=O)NC3CCN(C4CCOCC4)CC3)cc1Cl)CC2
12 | < 0.6 µM | CC(=O)Nc1nc2c(s1)-c1c(c(C3CC3)nn1-c1ccc(C(=O)NC3CCN(CC4CCCCC4)CC3)cc1C)CC2
13 | < 0.6 µM | CC(=O)Nc1nc2c(s1)-c1c(c(C3CC3)nn1-c1ccc(CC(=O)NC3CCN(C4CCCC4)CC3)cc1Cl)CC2
14 | < 0.6 µM | CC(=O)Nc1nc2c(s1)-c1c(c(C3CC3)nn1-c1ccc(C(=O)N(C)C3CCC(N4CCCC4)CC3)cc1Cl)CC2 (centres undefined)
15 | < 0.6 µM | CC(=O)Nc1nc2c(s1)-c1c(c(C3CC3)nn1-c1ccc(C(=O)N(C)[C@H]3CCN(C4CCCCC4)C3)cc1Cl)CC2
16 | < 0.6 µM | CC(=O)Nc1nc2c(s1)-c1c(c(C3CC3)nn1-c1ccc(NCC3CCCCC3)cc1Cl)CC2
17 | < 0.6 µM | CC(=O)Nc1nc2c(s1)-c1c(c(C3CC3)nn1-c1ccc(C(=O)NC3CCN(CC4CCCC4)CC3)c(C)c1)CC2
18 | < 0.6 µM | CC(=O)Nc1nc2c(s1)-c1c(c(C3CC3)nn1-c1ccc(C(=O)N(C)[C@H]3CCN(C4CCCCC4)C3)c(Cl)c1)CC2
19 | < 0.6 µM | CCN(C(=O)c1ccc(-n2nc(C3CC3)c3c2-c2sc(NC(C)=O)nc2CC3)c(C)c1)[C@H]1CC[C@@H](N2CCCC2)CC1
20 | < 0.6 µM | CC(=O)Nc1nc2c(s1)-c1c(c(C3CC3)nn1-c1ccc(C(=O)N[C@H]3CC[C@@H](N4CCCCC4)CC3)cc1C)CC2
21 | < 0.6 µM | CC(=O)Nc1nc2c(s1)-c1c(c(C3CC3)nn1-c1ccc(C(=O)N[C@@H]3CCN(C4CCCCC4)C3)cc1Cl)CC2
22 | < 0.6 µM | CC(=O)Nc1nc2c(s1)-c1c(c(C3CC3)nn1-c1ccc(C(=O)NC3CCN(C4CCCC4)CC3)cc1F)CC2
23 | < 0.6 µM | CC(=O)Nc1nc2c(s1)-c1c(c(C3CC3)nn1-c1ccc(C(=O)N[C@H]3CC[C@@H](N(C)CC4CC4)CC3)c(C)c1)CC2
24 | < 0.6 µM | CC(=O)Nc1nc2c(s1)-c1c(c(C3CC3)nn1-c1ccc(C(=O)NC3CCN(C4CCCC4)CC3)cc1C)CC2
25 | < 0.6 µM | CC(=O)Nc1nc2c(s1)-c1c(c(C3CC3)nn1-c1ccc(C(=O)N[C@H]3CC[C@@H](N4CCOCC4)CC3)c(Cl)c1)CC2
26 | < 0.6 µM | CCCN1CCC(C(=O)N2CCC(n3nc(C4CC4)c4c3-c3sc(NC(C)=O)nc3CC4)CC2)CC1
27 | < 0.6 µM | CC(=O)Nc1nc2c(s1)-c1c(c(C3CC3)nn1-c1ccc(C(=O)N[C@H]3CC[C@@H](N4CCOCC4)CC3)c(C)c1)CC2

Row | IC50 | Structure (SMILES)
28 | < 0.6 µM | CC(=O)Nc1nc2c(s1)-c1c(c(C3CC3)nn1-c1ccc(C(=O)NC[C@H]3CCN(C4CCCC4)C3)c(Cl)c1)CC2
29 | < 0.6 µM | CC(=O)Nc1nc2c(s1)-c1c(c(C3CC3)nn1-c1ccc(NCC3CCN(C4CCCC4)CC3)cc1Cl)CC2
30 | < 0.6 µM | CC(=O)Nc1nc2c(s1)-c1c(c(C3CC3)nn1-c1ccc(C(=O)N3CC[C@H](CN4CCCC4)C3)c(Cl)c1)CC2
31 | < 0.6 µM | CC(=O)Nc1nc2c(s1)-c1c(c(C3CC3)nn1-c1ccc(C(=O)N(C)C3CCC(N4CCCC4)CC3)c(F)c1)CC2 (centres undefined)
32 | < 0.6 µM | CC(=O)Nc1nc2c(s1)-c1c(c(C3CC3)nn1-c1ccc(C(=O)N[C@@H]3CCN(C4CCCCC4)C3)c(F)c1)CC2
33 | < 0.6 µM | CC(=O)Nc1nc2c(s1)-c1c(c(C3CC3)nn1-c1ccc(C(=O)N(C)[C@H]3CC[C@@H](N(C)CC4CC4)CC3)c(Cl)c1)CC2
34 | < 0.6 µM | CC(=O)Nc1nc2c(s1)-c1c(c(C3CC3)nn1-c1ccc(C(=O)NCC3CCN(C4CCCC4)CC3)cc1Cl)CC2
35 | < 0.6 µM | CC(=O)Nc1nc2c(s1)-c1c(c(C3CC3)nn1C1CCC(C(=O)N(C)[C@H]3CC[C@H](N4CCCC4)CC3)CC1)CC2 (some centres undefined)
36 | < 0.6 µM | CC(=O)Nc1nc2c(s1)-c1c(c(C3CC3)nn1-c1ccc(C(=O)N(C)C3CCN(C4CCCC4)CC3)c(Cl)c1)CC2
37 | < 0.6 µM | CC(=O)Nc1nc2c(s1)-c1c(c(C3CC3)nn1-c1ccc(C(=O)NCC3CCN(CC4CCCC4)CC3)cc1Cl)CC2
38 | < 0.6 µM | CC(=O)Nc1nc2c(s1)-c1c(c(C3CC3)nn1-c1ccc(C(=O)N(C)[C@H]3CCN(C4CCCCC4)C3)c(F)c1)CC2
39 | < 0.6 µM | CNc1ccc(-n2nc(C3CC3)c3c2-c2sc(NC(C)=O)nc2CC3)c(Cl)c1
40 | < 0.6 µM | CC(=O)Nc1nc2c(s1)-c1c(c(C3CCC3)nn1-c1ccc(C(=O)N(C)[C@H]3CC[C@@H](N4CCCC4)CC3)cc1Cl)CC2
41 | < 0.6 µM | CC(=O)Nc1nc2c(s1)-c1c(c(C3CC3)nn1-c1ccc(C(=O)N3CCC(N4CCCC4)CC3)c(Cl)c1)CC2
42 | < 0.6 µM | CC(=O)Nc1nc2c(s1)-c1c(c(C3CC3)nn1-c1ccc(NCC3CCN(C(=O)OC(C)(C)C)CC3)cc1Cl)CC2
43 | < 0.6 µM | CC(=O)Nc1nc2c(s1)-c1c(c(C3CC3)nn1-c1ccccc1Br)CC2
44 | < 0.6 µM | CC(=O)Nc1nc2c(s1)-c1c(c(C3CC3)nn1C1CCC(C(=O)NC3CCCCC3)CC1)CC2 (centres undefined)
45 | < 0.6 µM | CC(=O)Nc1nc2c(s1)-c1c(c(C3CC3)nn1-c1ccc(C(=O)NC3CCN(CC4CCCCC4)CC3)cc1Cl)CC2
46 | < 0.6 µM | CC(=O)Nc1nc2c(s1)-c1c(c(C3CC3)nn1[C@H]1CC[C@H](C(=O)NC3CCN(C4CCCC4)CC3)CC1)CC2
47 | < 0.6 µM | CC(=O)Nc1nc2c(s1)-c1c(c(C3CC3)nn1C1CCN(C(=O)N3CCC(N4CCCC4)CC3)CC1)CC2
48 | < 0.6 µM | CC(=O)Nc1nc2c(s1)-c1c(c(C3CC3)nn1-c1ccc(C(=O)NC3CCN(C4CCOCC4)CC3)cc1Cl)CC2
49 | < 0.6 µM | CC(=O)Nc1nc2c(s1)-c1c(c(C3CC3)nn1C1CCC(C(=O)NC3CCN(CC4CCCC4)CC3)CC1)CC2 (centres undefined)
50 | < 0.6 µM | CC(=O)Nc1nc2c(s1)-c1c(c(C3CC3)nn1-c1ccc(C(=O)N(C)C3CCN(C4CCCC4)C3)c(Cl)c1)CC2 (centres undefined)
51 | < 0.6 µM | CC(=O)Nc1nc2c(s1)-c1c(c(C3CC3)nn1-c1ccc(C(=O)N[C@H]3CC[C@@H](N4CCCCC4)CC3)c(F)c1)CC2
52 | < 0.6 µM | CC(=O)Nc1nc2c(s1)-c1c(c(C3CC3)nn1-c1ccc(C(=O)NC[C@@H]3CCCN3CC3CCCC3)c(Cl)c1)CC2
53 | < 0.6 µM | CC(=O)Nc1nc2c(s1)-c1c(c(C3CC3)nn1-c1ccc(CC(N)=O)cc1Cl)CC2
54 | < 0.6 µM | COc1cc(-n2nc(C3CC3)c3c2-c2sc(NC(C)=O)nc2CC3)ccc1C(=O)N1CCC(N2CCCC2)CC1
